Data from US20260317367A1, “SALTS INCLUDING CRYSTALLINE SALTS OF 25-HYDROXY-CHOLEST-5-EN-3-SULFATE AND METHODS FOR PREPARING SAME” (Durect Corporation, priority 2022, published 2026).
Counter-ions that a name gives are not always drawn.

Tests used:
Type in all cases: physicochemical
[1] = Appearance (color, clumping, flowability) of stored 25HC3S salts
[2] = Solubility of 25HC3S salts after one day at room temperature (HPLC, as free acid); details: one day
Summary of the method: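 25HC3S salts were shaken with excess solid at room temperature for one day in organic solvents or aqueous/biorelevant media (FaSSIF, FeSSIF, FaSSGF), then centrifuged. Supernatants were assayed by HPLC against a free-acid standard curve (11 μg/mL to 1.5 mg/mL); values are mg/mL free acid, LOD 0.0007 mg/mL.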

[3] = Hausner ratio and compressibility index of 25HC3S salts; details: for Compressibility Index: Table C3 heads this index in %
Summary of the method: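 Powder poured into a 5 mL graduated cylinder to about 5.0 mL (Vo), tapped 200 then 100 more times on a hard surface; final volume Vf recorded after 300 taps. Compressibility index and Hausner ratio calculated from Vo and Vf; flow character classed per USP <1174>.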

[4] = Angle of repose of 25HC3S salts; details: for Flow Property per USP<1174> Powder Flow: classification by angle of repose
Summary of the method: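 About 2 g of salt powder was poured through a 7 mm inner-diameter tube into a 21.14 mm rubber O-ring, forming a cone of fixed diameter. Cone height was measured with calipers and the angle of repose was calculated from it. Flow was classified per USP<1174>.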

[5] = Solid-state chemical stability of 25HC3S salts at 2-8° C., 60° C. and 80° C. (HPLC assay and degradation products); details: for % Impurities, Total / % Impurities, 25-HC: ND = Not Detected; for % Impurities, 25-HC: 25-Hydroxy-Cholesterol; for % Recovery: vs 2-8° C.; for Stability after 1 week at 60° C. (in words) / Stability after 3 weeks at 80° C. (in words): solid state; for Stability after 1 week at 60° C. (in words): 1 week (after 3 weeks at 2-8° C.)
Summary of the method: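 Crystalline 25HC3S salts (~25 mg powder per vial) stored at 2-8° C. or 80° C., pulled at 3 and 6 weeks; some 3-week 2-8° C. vials moved to 60° C. for 1 week. Dissolved in 100% methanol (sonication/vortexing, centrifugation or dilution), then HPLC against 25HC3S sodium standards (0.75-1.25 mg/mL) for assay and degradants.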

[6] = 2-8° C., 3 wk, listed as 25HC3S hydroxyethylpyrrolidinium
[7] = 80° C., 3 wk, listed as 25HC3S hydroxyethylpyrrolidinium
[8] = room temperature, listed as crystalline 25HC3S hydroxyethylpyrrolidinium
[9] = listed as 25HC3S hydroxyethylpyrrolidinium
[10] = 60° C., 1 wk, listed as 25HC3S hydroxyethylpyrrolidinium
[11] = 2-8° C., 3 wk, listed as 25HC3S meglumine
[12] = 80° C., 3 wk, listed as 25HC3S meglumine
[13] = 60° C., 1 wk, listed as 25HC3S meglumine

Q: Which Appearance [1, 6] does the source give for `CC(CCCC(C)(C)O)C1CCC2C3CC=C4CC(OS(=O)(=O)O)CCC4(C)C3CCC12C` (stereo not drawn) [Salt #6] here?
A: White, free flowing powder with clumping

Q: And the Appearance ([1]; 60° C., 1 wk (after 3 weeks at 2-8° C.), listed as 25HC3S hydroxyethylpyrrolidinium)?
A: White, free flowing powder with clumping

Q: What about the “Appearance after 3 weeks at 80° C.” value ([1]; 80° C.) of the same molecule?
A: completely burned

Q: What about the Appearance [1, 7] of the same molecule?
A: Dark brown, melted material stuck to

Q: What about the “Solubility in 0.9% NaCl” value ([2]; 0.9% NaCl, room temperature, as free acid, ND = not detected, detection limit 0.7 μg/mL, 1440 min, listed as 25HC3S hydroxyethylpyrrolidinium) of the same molecule?
A: 3 µg/mL

Q: What about the “Solubility in 5% Dextrose” value ([2]; room temperature, as free acid, LOD 0.0007 mg/mL, 1440 min) of the same molecule?
A: 642 µg/mL

Q: And the “Solubility in 5% Dextrose” value ([2]; room temperature, as free acid, ND = not detected, detection limit 0.7 μg/mL, 1440 min, listed as 25HC3S hydroxyethylpyrrolidinium)?
A: 642 µg/mL

Q: What about the “Solubility in acetonitrile (in words)” value ([2]; ACN, room temperature) of the same molecule?
A: relatively high solubility

Q: And the “Solubility in FaSSGF (in words)” value ([2]; FaSSGF, room temperature)?
A: high solubility

Q: And the “Solubility in FaSSGF” value ([2]; FaSSGF, room temperature, as free acid, ND = not detected, detection limit 0.7 μg/mL, 1440 min, listed as 25HC3S hydroxyethylpyrrolidinium)?
A: 10 µg/mL

Q: What about the “Solubility in FaSSIF (in words)” value ([2]; FaSSIF, room temperature) of the same molecule?
A: high solubility

Q: And the “Solubility in FaSSIF” value ([2]; FaSSIF, room temperature, as free acid, 1440 min, listed as 25HC3S hydroxyethylpyrrolidinium)?
A: 161 µg/mL

Q: What about the “Solubility in FaSSIF (in words)” value ([2]; FaSSIF, room temperature, listed as crystalline 25HC3S hydroxyethylpyrrolidinium) of the same molecule?
A: relatively high solubility

Q: What about the “Solubility in FaSSIF” value ([2]; Fasted State Simulated Intestinal Fluid, room temperature, as free acid, 1440 min) of the same molecule?
A: 161 µg/mL

Q: What about the “Solubility in FeSSIF (in words)” value ([2]; room temperature) of the same molecule?
A: high solubility

Q: What about the “Solubility in FeSSIF (in words)” value [2, 8] of the same molecule?
A: relatively high solubility

Q: And the “Solubility in methanol (in words)” value ([2]; MeOH, room temperature)?
A: did not reach saturation

Q: What about the “Solubility in ACN” value ([2]; acetonitrile, room temperature, as free acid, 1440 min, listed as 25HC3S hydroxyethylpyrrolidinium) of the same molecule?
A: 1200 µg/mL

Q: And the “Solubility in 5% dextrose (in words)” value ([2]; room temperature)?
A: highest solubility

Q: What about the “Solubility in 5% dextrose (in words)” value [2, 8] of the same molecule?
A: relatively high solubility

Q: What about the “Solubility in IPA” value ([2]; isopropyl alcohol, room temperature, as free acid, 1440 min, listed as 25HC3S hydroxyethylpyrrolidinium) of the same molecule?
A: 6700 µg/mL

Q: And the “Solubility in saline / 0.9% sodium chloride (in words)” value ([2]; room temperature)?
A: highest solubility

Q: What about the “Solubility in water (in words)” value ([2]; water, room temperature) of the same molecule?
A: highest solubility

Q: What about the “Solubility in H2O” value ([2]; water, room temperature, as free acid, ND = not detected, detection limit 0.7 μg/mL, 1440 min, listed as 25HC3S hydroxyethylpyrrolidinium) of the same molecule?
A: 273 µg/mL

Q: And the “Compressibility Index” value [3, 9]?
A: 35

Q: And the “Hausner Ratio” value [3, 9]?
A: 1.53

Q: And the “Flow Property per USP<1174> Powder Flow” value [4, 9]?
A: Poor - must agitate,

Q: What about the “Angle of Repose” value [4, 9] of the same molecule?
A: 53.8 degrees

Q: And the “Angle of Repose, Rounded Whole Number” value [4, 9]?
A: 54 degrees

Q: And the Assay ([5]; 2-8° C., 3 wk, 30240 min, listed as 25HC3S hydroxyethylpyrrolidinium)?
A: 100.5 % w/w

Q: And the “% Impurities, Total” value [5, 6]?
A: 2.0%

Q: And the “% Impurities, 25-HC” value [5, 6]?
A: 0.3%

Q: What about the “% Impurities, 25-HC” value [5, 10] of the same molecule?
A: 0.4%

Q: And the “% Impurities, 25-HC” value [5, 7]?
A: 0.3%

Q: And the “Physical and chemical solid-state stability (comments)” value ([5]; 60° C., 1 week, listed as 25HC3S Hydroxyethylpyrrolidinium)?
A: Stable after 1 week at 60 °C

Q: And the Assay ([5]; 60° C., 1 wk (after 3 weeks at 2-8° C.), 10080 min, listed as 25HC3S hydroxyethylpyrrolidinium, 10080 min)?
A: 104.9 % w/w

Q: What about the “% Recovery of 2-8° C./3 wk vs 60° C./1 wk” value ([5]; 60° C., 1 wk, 10080 min, listed as 25HC3S hydroxyethylpyrrolidinium) of the same molecule?
A: 104.4%

Q: And the “% Impurities, Total” value [5, 10]?
A: 1.8%

Q: And the “Physical and chemical solid-state stability (comments)” value ([5]; 80° C., 3 weeks, listed as 25HC3S Hydroxyethylpyrrolidinium)?
A: totally decomposed after 3

Q: What about the “% Recovery” value ([5]; 80° C., 3 wk, 30240 min, listed as 25HC3S hydroxyethylpyrrolidinium, 30240 min) of the same molecule?
A: 0.0%

Q: And the Assay ([5]; 80° C., 3 wk, 30240 min, listed as 25HC3S hydroxyethylpyrrolidinium)?
A: 0.0 % w/w

Q: And the “% Impurities, Total” value [5, 7]?
A: 99.9%

Q: And the “Stability after 1 week at 60° C. (in words)” value ([5]; 60° C.)?
A: stable

Q: What about the “Stability after 3 weeks at 80° C. (in words)” value ([5]; 80° C., 3 weeks) of the same molecule?
A: totally decomposed

Q: What does the source list for `CC(CCCC(C)(C)O)C1CCC2C3CC=C4CC(OS(=O)(=O)O)CCC4(C)C3CCC12C` (stereo not drawn) [Salt #7]?
A: Appearance [1, 11]: White, free flowing powder, no clumping; Appearance ([1]; 60° C., 1 wk (after 3 weeks at 2-8° C.), listed as 25HC3S meglumine): White, free flowing powder, no clumping; Appearance after 3 weeks at 80° C. ([1]; 80° C.): completely burned; Appearance [1, 12]: Light brown, partially melted material; Solubility in FaSSGF (in words) ([2]; FaSSGF, room temperature): high solubility; Solubility in FaSSGF (in words) ([2]; FaSSGF, room temperature, listed as crystalline 25HC3S meglumine): relatively high solubility; Solubility in FaSSIF (in words) ([2]; FaSSIF, room temperature): high solubility; Solubility in FaSSGF ([2]; Fasted State Simulated Gastric Fluid, pH 1.6, room temperature, as free acid, LOD 0.0007 mg/mL, 1440 min): 48 µg/mL; Solubility in FeSSIF (in words) ([2]; room temperature): high solubility; Solubility in saline / 0.9% sodium chloride (in words) ([2]; room temperature, listed as crystalline 25HC3S meglumine): low solubility; Compressibility Index ([3]; listed as 25HC3S meglumine): 36; Hausner Ratio ([3]; listed as 25HC3S meglumine): 1.56; Flow Property per USP<1174> Powder Flow ([4]; listed as 25HC3S meglumine): Fair - aid not needed; Angle of Repose ([4]; listed as 25HC3S meglumine): 37.3 degrees; Angle of Repose, Rounded Whole Number ([4]; listed as 25HC3S meglumine): 37 degrees; Assay ([5]; 2-8° C., 3 wk, 30240 min, listed as 25HC3S meglumine): 98.3 % w/w; % Impurities, Total [5, 11]: 0.9%; % Impurities, 25-HC [5, 13]: 0.4%; Physical and chemical solid-state stability (comments) ([5]; 60° C., 1 week, listed as 25HC3S Meglumine): Stable after 1 week at 60 °C; Assay ([5]; 60° C., 1 wk (after 3 weeks at 2-8° C.), 10080 min, listed as 25HC3S meglumine, 10080 min): 104.6 % w/w; % Recovery of 2-8° C./3 wk vs 60° C./1 wk ([5]; 60° C., 1 wk, 10080 min, listed as 25HC3S meglumine): 106.4%; % Impurities, Total [5, 13]: 1.7%; Physical and chemical solid-state stability (comments) ([5]; 80° C., 3 weeks, listed as 25HC3S Meglumine): totally decomposed after 3; % Recovery ([5]; 80° C., 3 wk, 30240 min, listed as 25HC3S meglumine, 30240 min): 0.0%; Assay ([5]; 80° C., 3 wk, 30240 min, listed as 25HC3S meglumine): 0.0 % w/w; % Impurities, Total [5, 12]: 100.3%; Stability after 1 week at 60° C. (in words) ([5]; 60° C.): stable; Stability after 3 weeks at 80° C. (in words) ([5]; 80° C., 3 weeks): totally decomposed
